Results reported in PubChem BioAssay (NCI).
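96-well plates; 48 h exposure; 5 concentrations. Endpoints by linear interpolation between flanking doses. Not reached: highest tested concentration assigned. TGI denotes the concentration required for complete inhibition of growth.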

Key:
Assay in all cases: DTP human tumour cell line panel, 48 h
SK-MEL-5 melanoma = tested on: SK-MEL-5 melanoma
UACC-257 melanoma = tested on: UACC-257 melanoma
SF-268 CNS = tested on: SF-268 CNS
COLO 205 colon = tested on: COLO 205 colon
UO-31 renal = tested on: UO-31 renal
HCT-15 colon = tested on: HCT-15 colon
HCT-116 colon = tested on: HCT-116 colon
OVCAR-5 ovarian = tested on: OVCAR-5 ovarian
MALME-3M melanoma = tested on: MALME-3M melanoma
M19-MEL melanoma = tested on: M19-MEL melanoma
SW-620 colon = tested on: SW-620 colon
OVCAR-4 ovarian = tested on: OVCAR-4 ovarian
OVCAR-8 ovarian = tested on: OVCAR-8 ovarian
SK-MEL-2 melanoma = tested on: SK-MEL-2 melanoma
XF 498 CNS = tested on: XF 498 CNS
EKVX NSCLC = tested on: EKVX NSCLC
LOX IMVI melanoma = tested on: LOX IMVI melanoma
SF-295 CNS = tested on: SF-295 CNS
K-562 leukemia = tested on: K-562 leukemia
OVCAR-3 ovarian = tested on: OVCAR-3 ovarian
SNB-19 CNS = tested on: SNB-19 CNS
SNB-75 CNS = tested on: SNB-75 CNS
NCI-H522 lung = tested on: NCI-H522 lung
HL-60(TB) leukemia = tested on: HL-60(TB) leukemia
A498 renal = tested on: A498 renal
KM20L2 colon = tested on: KM20L2 colon
UACC-62 melanoma = tested on: UACC-62 melanoma
ACHN renal = tested on: ACHN renal
RXF 393 renal = tested on: RXF 393 renal
LXFL 529 NSCLC = tested on: LXFL 529 NSCLC
HOP-92 NSCLC = tested on: HOP-92 NSCLC
NCI-H460 lung = tested on: NCI-H460 lung
786-0 renal = tested on: 786-0 renal
IGROV1 ovarian = tested on: IGROV1 ovarian
M14 melanoma = tested on: M14 melanoma
NCI-H23 lung = tested on: NCI-H23 lung
MOLT-4 leukemia = tested on: MOLT-4 leukemia
NCI-H226 lung = tested on: NCI-H226 lung
CAKI-1 renal = tested on: CAKI-1 renal
SK-OV-3 ovarian = tested on: SK-OV-3 ovarian
SF-539 CNS = tested on: SF-539 CNS
A549 NSCLC = tested on: A549 NSCLC
CCRF-CEM leukemia = tested on: CCRF-CEM leukemia
SNB-78 CNS = tested on: SNB-78 CNS
DMS 273 small cell lung = tested on: DMS 273 small cell lung
U251 CNS = tested on: U251 CNS
HT29 colon = tested on: HT29 colon
DLD-1 colon = tested on: DLD-1 colon
SK-MEL-28 melanoma = tested on: SK-MEL-28 melanoma
SN12C renal = tested on: SN12C renal
TK-10 renal = tested on: TK-10 renal
HOP-62 NSCLC = tested on: HOP-62 NSCLC
KM12 colon = tested on: KM12 colon
HOP-18 NSCLC = tested on: HOP-18 NSCLC
DMS 114 small cell lung = tested on: DMS 114 small cell lung
SR leukemia = tested on: SR leukemia
RPMI-8226 leukemia = tested on: RPMI-8226 leukemia

Measured: TGI

CCO/C(O)=c1/s/c(=C(\C#N)c2nc3ccccc3[nH]2)n(-c2ccccc2)c1=N
not listed: KM12 colon | HOP-18 NSCLC | DMS 114 small cell lung | SR leukemia | RPMI-8226 leukemia
> 100 µM: all other assays above

Cc1cc(Br)ccc1N=Nc1c(C)nn(-c2ccccc2)c1-c1ccccc1
not listed: KM20L2 colon | NCI-H226 lung
> 100 µM: all other assays above
